Entries after “also recorded” stand apart in the source; their conditions may differ.
Key:
Type in all cases: physicochemical
[1] = Evaluation of molar absorption coefficient (UV-vis); conditions: for Molar absorption coefficient: deionized water, UV-vis spectrometer; for absorption coefficient relative to HNB: times higher than that of HNB
Experimental: HNB and 9 types of candidate substances were dissolved in deionized water to prepare 100 μg/ml of a stock and then diluted with deionized water to prepare samples of 50, 25 and 12.5 μg/ml. Next, an absorption spectrum was obtained using an analyzer UV-vis spectrometer (Agilent 8453), and then absorption coefficient values at a concentration of […] were measured and shown in Table 1 below.

[2] = Evaluation of magnesium ion detection characteristics and pH stability (color development, 96 well plate); conditions: sodium phosphate buffer pH 4, 7, 9, 11; specimen 120 μM
Experimental: 200 mM of a magnesium chloride solution was prepared by dissolving 0.9521 g of magnesium chloride in 50 ml of deionized water.
59.99 mg of sodium phosphate monobasic and 70.98 mg of sodium phosphate dibasic were dissolved in 50 ml of distilled water to prepare 10 mM of a sodium phosphate buffer solution, and then 28.85 ml of a sodium phosphate monobasic solution and 21.15 ml of a sodium phosphate dibasic solution were mixed to prepare a sodium phosphate buffer solution at pH 7. In a similar manner, the two solutions were mixed to prepare sodium phosphate buffer solutions having acidity of pH 4, pH 7, pH 9, and pH 11, respectively.
For determination of color development, the HNB and the candidate substance were prepared at concentrations of 240 μM and used for the test.
Hydroxynaphthalene blue (HNB) and 9 types of water-soluble candidate substances selected by the solubility test were diluted with distilled water to prepare specimens at concentrations of 240 μM, respectively.
It was confirmed whether the candidate substances according to the present invention reacted with magnesium ions to be color-developed (discolored). In addition, pH stability was confirmed according to whether the candidate substances were specifically color-developed by reacting only with magnesium ions regardless of a pH change.
The color development of the control (HNB) and […] of candidate substances was confirmed under conditions of blank, a MgCl2 solution, pH 4, pH 7, pH 9, and pH 11 using a 96 well plate (12×6 holes). Specifically, 100 μl of deionized water (blank) was added in a first row of the plate, 100 μl of the MgCl2 solution was added in a second row thereof, and 100 μl of each of solutions at pH 4, pH 7, pH 9, and pH 11 was added in third to sixth rows thereof using 10 mM of the sodium phosphate buffer solution prepared in step a) above. In columns of the plate, 100 μl of specimens prepared at a concentration of 240 μM were added to 6 rows, respectively, and a total of 36 specimens were screened. […]

[3] = Evaluation of magnesium ion sensitivity at concentration of less than 10 mM
Experimental: Magnesium chloride was dissolved in deionized water and diluted to 8, 10, 12, 14 and 16 mM, respectively, to prepare specimens. Next, as the dye compounds, the HNB and the compound of Chemical Formula 2 were prepared at a concentration of 240 μM, but the compounds of Chemical Formulas 3 and 4 were prepared to be diluted at a concentration of 120 μM by 50% because the molar absorption coefficient of the compounds was two times higher than that of the control (HNB).
In each row of a 96-well plate, […] of the dye compound was filled, and in each column, […] of a diluted magnesium chloride solution was filled, and then the color changes were observed and absorbance was measured. The final concentrations of magnesium chloride in the 96-well plate were 0, 4, 5, 6, 7, and 8 mM, and the final concentrations of HNB and Chemical Formula 2 were 120 μM, respectively, and the final concentrations of Chemical Formulas 3 and 4 were 60 μM, respectively.

Solubility test in water = conditions: 10 mg dissolved in 1 ml of deionized water
Experimental: The solubility in water was measured to confirm the solubility of the synthesized candidate compounds. Specifically, 10 mg of hydroxynaphthalene blue (HNB), which is a compound known to be developed by magnesium ions as a control, and 10 mg of each of the candidate compounds were dissolved in 1 ml of deionized water, and then the solubility was confirmed.
Various color developing dyes represented by Chemical Formula 1 above were dissolved in distilled water (D.W) and the solubility was tested to select a compound having high solubility. The selected compound was diluted at each concentration (100 uM, 50 uM, 25 uM, 12.5 uM, 6.25 uM, and 3.13 uM) and the reaction sensitivity with magnesium (magnesium concentration of 100 mM, 10 mM) by concentration was tested.

Row | Compound | Molar absorption coefficient [1] | pH stability (color development with pH change in the absence of magnesium ions) [2] | also measured
1 | O=[N+]([O-])c1ccc(O)c(N=Nc2cc(S(=O)(=O)O)c3ccccc3c2O)c1 [Chemical Formula 2] | 12,000 | developed to a color clearly different from that in the presence of magnesium ions under neutral to basic conditions | –
2 | Nc1ccc2c(O)c(N=Nc3ccc([N+](=O)[O-])cc3O)c(S(=O)(=O)O)cc2c1 [Chemical Formula 3] | 44,000 | excellent; also recorded: without being influenced by the pH change | absorption coefficient relative to HNB [1]: 3.38 times; absorption spectrum position after shift by magnesium ions ([3]; with magnesium ions): 640 nm; absorption spectrum position before shift by magnesium ions ([3]; without magnesium ions): 500 nm
3 | O=[N+]([O-])c1cc(N=Nc2c(S(=O)(=O)O)cc3cc(Nc4ccccc4)ccc3c2O)c(O)c([N+](=O)[O-])c1 [Chemical Formula 4] | 31,000 | excellent; also recorded: without being influenced by the pH change | absorption coefficient relative to HNB [1]: 2.38 times
4 | CC1=NN(c2ccccc2)C(O)C1N=Nc1cc([N+](=O)[O-])cc(S(=O)(=O)O)c1O (centres unmarked) [Chemical Formula 5] | 33,579 | – | –
5 | O=[N+]([O-])c1cc(N=Nc2c(O)cccc2O)c(O)c(S(=O)(=O)O)c1 [Chemical Formula 6] | 18,000 | – | –
6 | O=[N+]([O-])c1cc(N=Nc2c(S(=O)(=O)O)cc3cc(Nc4ccccc4)ccc3c2O)c(O)c(S(=O)(=O)O)c1 [Chemical Formula 7] | 25,000 | – | –
7 | O=[N+]([O-])c1cc(N=Nc2c(O)ccc3ccccc23)c(O)c([N+](=O)[O-])c1 [Chemical Formula 8] | 5,117 | – | –
8 | O=[N+]([O-])c1cc(S(=O)(=O)O)cc(N=Nc2cc(S(=O)(=O)[O-])c3ccccc3c2O)c1O.[Na+] [Chemical Formula 9] | 23,000 | – | –
9 | hydroxynaphthalene blue [HNB, reference compound] | 13,000 | – | solubility in water (Solubility test in water): dissolved in water
